Experimental data published in patent US20240174618A1, “SUBSTITUTED (2-HETEROARYLOXYPHENYL)SULFONATES, SALTS THEREOF AND THEIR USE AS HERBICIDAL AGENTS” (Bayer Aktiengesellschaft, priority 2021, published 2024).

What was measured:
Assay type in all cases: in vivo
[1] = tested on: Abutilon theophrasti (ABUTH); experiment: A. Herbicidal pre-emergence efficacy, ABUTH; settings: 1280 g/ha; scored visually after about 3 weeks vs untreated controls
How it was run: (§1)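 Applied before emergence onto covering soil at rates of 1280 g/ha or less, using 600 L/ha spray water with 0.5% additive. Scoring: visual % efficacy after ~3 weeks, greenhouse.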

[2] = tested on: Alopecurus myosuroides (ALOMY); experiment: A. Herbicidal pre-emergence efficacy, ALOMY; settings: 1280 g/ha; scored visually after about 3 weeks vs untreated controls
Excerpt: (§2) Seeds of mono- and dicotyledonous weed plants were placed in plastic pots in sandy loam soil (doubly sown with one species each of mono- or dicotyledonous weed plants per pot) and covered with soil. The compounds of the invention, formulated in the form of wettable powders (WP) or as emulsion concentrates (EC), were then applied onto the surface of the covering soil as aqueous suspension or emulsion with addition of 0.5% additive at a water application rate of 600 liters per hectare (converted). After the treatment, the pots were placed in a greenhouse and kept under good growth conditions for the test plants. After about 3 weeks, the efficacy of the preparations was scored visually in comparison with untreated controls as percentages.
(§3) For example, • 100% efficacy=plants have died, • 0% efficacy=like untreated control plants.
(§4) Tables A1a to A12c below show the effects of selected compounds of the general formula (I) according to table 1 on various harmful plants at an application rate corresponding to 1280 g/ha or less, which were obtained by the experimental procedure mentioned above.

[3] = tested on: Digitaria sanguinalis (DIGSA); experiment: A. Herbicidal pre-emergence efficacy, DIGSA; settings: scored visually after about 3 weeks vs untreated controls
How it was run: as §1

[4] = tested on: Echinochloa crus-galli (ECHCG); experiment: A. Herbicidal pre-emergence efficacy, ECHCG; settings: 1280 g/ha; scored visually after about 3 weeks vs untreated controls
How it was run: as §1

Kochia scoparia (KCHSC) [5] = experiment: A. Herbicidal pre-emergence efficacy, KCHSC; settings: pre-emergence, dosage 1280 g/ha
How it was run: as §1

Lolium rigidum (LOLRI) = experiment: A. Herbicidal pre-emergence efficacy, LOLRI; settings: dosage 1280 g/ha
How it was run: as §1

[6] = tested on: Matricaria inodora (MATIN); experiment: A. Herbicidal pre-emergence efficacy, MATIN; settings: pre-emergence, dosage 1280 g/ha
Excerpt: as §2, §3, §4

Poa annua (POAAN) [7] = experiment: A. Herbicidal pre-emergence efficacy, POAAN
How it was run: as §1

Setaria viridis (SETVI) = experiment: A. Herbicidal pre-emergence efficacy, SETVI
How it was run: as §1

Stellaria media (STEME) [8] = experiment: A. Herbicidal pre-emergence efficacy, STEME; settings: dosage 1280 g/ha
How it was run: as §1

Veronica persica (VERPE) [9] = experiment: A. Herbicidal pre-emergence efficacy, VERPE
How it was run: as §1

[10] = tested on: Amaranthus retroflexus (AMARE); experiment: A. Herbicidal pre-emergence efficacy, AMARE
How it was run: as §1

[11] = tested on: Abutilon theophrasti (ABUTH); experiment: B. Herbicidal post-emergence efficacy, ABUTH; settings: rated visually after about 3 weeks
How it was run: (§5)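 Weeds grown in sandy loam in greenhouse and sprayed at the one-leaf stage, 2–3 weeks after sowing, with WP or EC formulations plus 0.5% additive at 600 L/ha water. Injury rated visually versus untreated controls after about 3 weeks (100% = dead, 0% = like control); rates up to 1280 g/ha.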

[12] = tested on: Echinochloa crus-galli (ECHCG); experiment: B. Herbicidal post-emergence efficacy, ECHCG; settings: 1280 g/ha, rated visually after about 3 weeks
How it was run: as §5

Kochia scoparia (KCHSC) [13] = experiment: B. Herbicidal post-emergence efficacy, KCHSC; settings: 1280 g/ha
How it was run: as §5

Poa annua (POAAN) [14] = experiment: B. Herbicidal post-emergence efficacy, POAAN; settings: 1280 g/ha
How it was run: as §5

Stellaria media (STEME) [15] = experiment: B. Herbicidal post-emergence efficacy, STEME
How it was run: as §5

Veronica persica (VERPE) [16] = experiment: B. Herbicidal post-emergence efficacy, VERPE
How it was run: as §5

[17] = tested on: Amaranthus retroflexus (AMARE); experiment: B. Herbicidal post-emergence efficacy, AMARE
How it was run: as §5

Q: What does the source list for `Cc1cccc(Oc2ncc(Br)cn2)c1OS(=O)(=O)CCCC(F)(F)F` [Example I-35]?
A: Pre-emergence efficacy against ABUTH [1]: 100%; Pre-emergence efficacy against ALOMY [2]: 90%; Pre-emergence efficacy against DIGSA ([3]; 320 g/ha): 90%; Pre-emergence efficacy against DIGSA ([3]; 1280 g/ha): 100%; Pre-emergence efficacy against ECHCG [4]: 100%; Pre-emergence efficacy against KCHSC (Kochia scoparia (KCHSC) [5]): 90%; Pre-emergence efficacy against LOLRI (Lolium rigidum (LOLRI)): 100%; Pre-emergence efficacy against MATIN [6]: 100%; Pre-emergence efficacy against POAAN (Poa annua (POAAN) [7]; dosage 320 g/ha): 100%; Pre-emergence efficacy against POAAN (Poa annua (POAAN) [7]; dosage 1280 g/ha): 100%; Pre-emergence efficacy against SETVI (Setaria viridis (SETVI); dosage 320 g/ha): 100%; Pre-emergence efficacy against SETVI (Setaria viridis (SETVI); dosage 1280 g/ha): 100%; Pre-emergence efficacy against STEME (Stellaria media (STEME) [8]): 100%; Pre-emergence efficacy against VERPE in % (Veronica persica (VERPE) [9]; 320 g/ha): 90%; Pre-emergence efficacy against VERPE in % (Veronica persica (VERPE) [9]; 1280 g/ha): 100%; Pre-emergence efficacy against AMARE in % ([10]; 320 g/ha): 90%; Pre-emergence efficacy against AMARE in % ([10]; 1280 g/ha): 100%; Post-emergence efficacy against ABUTH in % ([11]; 320 g/ha): 100%; Post-emergence efficacy against ABUTH in % ([11]; 1280 g/ha): 100%; Post-emergence efficacy against ECHCG in % [12]: 90%; Post-emergence efficacy against KCHSC (Kochia scoparia (KCHSC) [13]): 100%; Post-emergence efficacy against POAAN (Poa annua (POAAN) [14]): 90%; Post-emergence efficacy against STEME (Stellaria media (STEME) [15]; 80 g/ha): 90%; Post-emergence efficacy against STEME (Stellaria media (STEME) [15]; 320 g/ha): 100%; Post-emergence efficacy against STEME (Stellaria media (STEME) [15]; 1280 g/ha): 100%; Post-emergence efficacy against VERPE (Veronica persica (VERPE) [16]; 80 g/ha): 90%; Post-emergence efficacy against VERPE (Veronica persica (VERPE) [16]; 320 g/ha): 90%; Post-emergence efficacy against VERPE (Veronica persica (VERPE) [16]; 1280 g/ha): 100%; Post-emergence efficacy against AMARE ([17]; 320 g/ha): 90%; Post-emergence efficacy against AMARE ([17]; 1280 g/ha): 100%
